Target: T1, PKCε (Homo sapiens, UniProt Q02156)
T1 sequence (Q02156 1-737): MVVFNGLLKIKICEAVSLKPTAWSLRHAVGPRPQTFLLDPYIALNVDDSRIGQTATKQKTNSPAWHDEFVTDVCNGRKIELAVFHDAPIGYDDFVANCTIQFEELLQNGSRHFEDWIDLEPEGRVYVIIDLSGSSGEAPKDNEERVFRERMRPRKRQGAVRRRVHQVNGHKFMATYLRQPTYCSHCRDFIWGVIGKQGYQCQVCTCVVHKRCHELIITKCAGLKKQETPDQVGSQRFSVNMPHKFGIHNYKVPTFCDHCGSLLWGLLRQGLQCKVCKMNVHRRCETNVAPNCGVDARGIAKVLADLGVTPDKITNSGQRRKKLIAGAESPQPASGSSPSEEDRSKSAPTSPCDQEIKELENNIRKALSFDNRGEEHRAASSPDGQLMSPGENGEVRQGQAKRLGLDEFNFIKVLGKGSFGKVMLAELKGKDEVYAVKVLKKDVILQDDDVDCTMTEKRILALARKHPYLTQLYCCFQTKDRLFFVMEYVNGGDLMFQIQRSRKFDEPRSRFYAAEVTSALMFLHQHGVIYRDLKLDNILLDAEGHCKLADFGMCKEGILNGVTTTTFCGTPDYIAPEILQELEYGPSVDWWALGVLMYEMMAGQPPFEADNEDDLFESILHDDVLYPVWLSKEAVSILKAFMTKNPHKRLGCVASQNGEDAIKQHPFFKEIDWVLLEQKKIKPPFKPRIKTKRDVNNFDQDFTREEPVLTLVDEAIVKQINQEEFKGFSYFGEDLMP
Experiment: SPR
Assay type: binding

Kd: 44.8 µM
Structure (SMILES): COc1cccc2c1C(=O)c1c(O)c3c(c(O)c1C2=O)C[C@@](O)(C(=O)CO)C[C@@H]3O[C@H]1C[C@H](N)[C@H](O)[C@H](C)O1 [Dox, Doxorubicin]
